Measured values taken from patent publication US20240368135A1 (VERTEX PHARMACEUTICALS INCORPORATED, priority 2021, published 2024).

Target: human NaV 1.8 (Homo sapiens, UniProt Q9Y5Y9)
Assay: E-VIPR assay detecting and measuring NaV inhibition properties
Type: cell-based
Details: HEK cells expressing truncated human NaV 1.8; in the presence of human serum (compound numbers followed by *); read-out: IC50 in the E-VIPR Assay, performed in the presence of human serum
Outline: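 Membrane potential was followed by coumarin/oxonol FRET during electrical field stimulation of matrigel-seeded HEK cells carrying truncated human NaV1.8 plus KIR2.1. Dosing used 11 points, 3-fold steps, top 300 nM final, 0.625% DMSO, with or without 25% human serum.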

Sequence of human NaV 1.8 (Q9Y5Y9 126-399 limits assumed): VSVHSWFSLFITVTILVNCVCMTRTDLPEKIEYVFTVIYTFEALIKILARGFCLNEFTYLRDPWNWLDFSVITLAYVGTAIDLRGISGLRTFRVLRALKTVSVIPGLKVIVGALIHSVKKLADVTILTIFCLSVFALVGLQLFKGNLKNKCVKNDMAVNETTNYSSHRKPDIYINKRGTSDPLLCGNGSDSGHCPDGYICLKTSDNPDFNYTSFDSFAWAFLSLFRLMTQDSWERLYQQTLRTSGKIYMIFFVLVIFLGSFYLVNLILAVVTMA
Sequence of human NaV 1.8 (Q9Y5Y9 660-890 limits assumed): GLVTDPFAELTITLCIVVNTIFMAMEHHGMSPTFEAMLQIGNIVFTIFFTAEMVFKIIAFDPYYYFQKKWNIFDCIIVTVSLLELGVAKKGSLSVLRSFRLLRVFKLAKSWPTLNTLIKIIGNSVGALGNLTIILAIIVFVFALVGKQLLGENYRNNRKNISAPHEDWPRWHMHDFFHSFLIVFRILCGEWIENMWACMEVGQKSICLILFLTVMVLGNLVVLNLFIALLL
Sequence of human NaV 1.8 (Q9Y5Y9 1148-1722 limits assumed): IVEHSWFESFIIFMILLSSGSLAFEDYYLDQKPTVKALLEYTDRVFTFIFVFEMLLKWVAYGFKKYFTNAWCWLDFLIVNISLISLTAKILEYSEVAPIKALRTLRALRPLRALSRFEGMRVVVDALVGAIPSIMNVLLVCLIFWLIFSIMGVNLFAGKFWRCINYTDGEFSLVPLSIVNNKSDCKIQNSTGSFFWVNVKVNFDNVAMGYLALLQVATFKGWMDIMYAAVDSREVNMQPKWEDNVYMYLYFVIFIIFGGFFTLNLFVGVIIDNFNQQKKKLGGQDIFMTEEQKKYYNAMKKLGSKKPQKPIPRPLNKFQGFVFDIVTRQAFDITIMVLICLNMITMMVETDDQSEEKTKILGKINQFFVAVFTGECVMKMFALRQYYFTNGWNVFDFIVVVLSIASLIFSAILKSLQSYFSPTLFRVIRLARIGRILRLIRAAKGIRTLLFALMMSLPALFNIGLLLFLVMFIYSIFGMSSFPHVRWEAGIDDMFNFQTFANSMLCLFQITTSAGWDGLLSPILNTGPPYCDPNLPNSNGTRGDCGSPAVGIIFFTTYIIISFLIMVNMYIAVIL

For COc1c(C2CC(C)(C(F)(F)F)OC2C(=O)Nc2ccnc(C(O)C(C)O)c2)ccc(F)c1F (single isomer, unassigned) [Compound 693], which IC50 is on record?
The IC50 was at least 1000 nM.

How did the IC50 turn out when COc1c([C@@H]2C[C@](C)(C(F)(F)F)O[C@H]2C(=O)Nc2cc(C(O)CO)ncc2F)ccc(F)c1F (single isomer, unassigned) [Compound 689] was run?
Its IC50 is 100 to 1000 nM.

Same assay, conditions: HEK cells expressing truncated human NaV 1.8; no human serum; read-out: IC50 in the E-VIPR Assay

With Cc1nn(C(F)F)cc1NC(=O)[C@@H]1O[C@@](C)(C(F)(F)F)[C@@H](C)[C@H]1c1ccc(F)c(F)c1OC1CC(O)C1 (stereo partly drawn) [Compound 600, (2R,3S,4S,5R)-3-[3,4-difluoro-2-(3-hydroxycyclobutoxy)phenyl]-N-[1-(difluoromethyl)-3-methyl-pyrazol-4-yl]-4,5-dimethyl-5-(trifluoromethyl)tetrahydrofuran-2-carboxamide] as the compound, how does the IC50 read?
The IC50 was 10 to 100 nM.

For CCOc1c([C@H]2[C@H](C(=O)Nc3ccnc(S(C)(=N)=O)c3)O[C@@](C)(C(F)(F)F)[C@H]2C)ccc(F)c1F (single isomer, unassigned) [Compound 111], which IC50 is on record?
Its IC50 is under 10 nM.

Which IC50 does the source give for COc1c(C2C(C(=O)Nc3ccnc(C(C)(C)O)c3)OC(C)(C(F)(F)F)C2C)ccc(F)c1F (single isomer, unassigned) [Compound 48, 3-(3,4-difluoro-2-methoxy-phenyl)-N-[2-(1-hydroxy-1-methyl-ethyl)-4-pyridyl]-4,5-dimethyl-5-(trifluoromethyl)tetrahydrofuran-2-carboxamide] here?
Its IC50 is under 10 nM.

How did the IC50 turn out when Cc1cncc(NC(=O)C2OC(C)(C(F)(F)F)C(C)C2c2ccc(F)c(F)c2OC2CC(O)C2)c1 [Compound 665, (2R,3S,4S,5R)-3-(3,4-difluoro-2-((1S,3R)-3-hydroxycyclobutoxy)phenyl)-4,5-dimethyl-N-(5-methylpyridin-3-yl)-5-(trifluoromethyl)tetrahydrofuran-2-carboxamide] was run?
Its IC50 is 10 to 100 nM.

For Cc1nn(C(F)F)cc1NC(=O)[C@@H]1O[C@@](C)(C(F)(F)F)[C@@H](C)[C@H]1c1ccc(F)c(F)c1OCCO [Compound 536, (2R,3S,4S,5R)-3-(3,4-difluoro-2-(2-hydroxyethoxy)phenyl)-N-(1-(difluoromethyl)-3-methyl-1H-pyrazol-4-yl)-4,5-dimethyl-5-(trifluoromethyl)tetrahydrofuran-2-carboxamide], which IC50 is on record?
Its IC50 is under 10 nM.

CNC(=O)c1ccc(NC(=O)[C@H]2O[C@](C)(C(F)(F)F)[C@H](C)[C@@H]2c2ccc(F)c(C(F)F)c2OC)cn1 (stereo in doubt) [Compound 171, rel-5-((2S,3R,4R,5S)-3-(3-(difluoromethyl)-4-fluoro-2-methoxyphenyl)-4,5-dimethyl-5-(trifluoromethyl)tetrahydrofuran-2-carboxamido)-N-methylpicolinamide] was tested. Which IC50 did it give?
Its IC50 is 10 to 100 nM.

How did the IC50 turn out when C[C@H]1[C@@H](c2ccc(F)c(F)c2OC(F)F)[C@H](C(=O)Nc2ccn3nnnc3c2)O[C@@]1(C)C(F)(F)F (single isomer, unassigned) [Compound 80] was run?
The IC50 was under 10 nM.

For Cc1nocc1NC(=O)[C@@H]1O[C@@](C)(C(F)(F)F)[C@@H](C)[C@H]1c1ccc(F)c(F)c1OCCN1CC(C)(O)C1 [Compound 626, (2R,3S,4S,5R)-3-(3,4-difluoro-2-(2-(3-hydroxy-3-methylazetidin-1-yl)ethoxy)phenyl)-4,5-dimethyl-N-(3-methylisoxazol-4-yl)-5-(trifluoromethyl)tetrahydrofuran-2-carboxamide], which IC50 is on record?
The IC50 was 100 to 1000 nM.

Which IC50 does the source give for COc1c([C@H]2[C@H](C(=O)NC3CCN(C(N)=O)CC3)O[C@@](C)(C(F)(F)F)[C@H]2C)ccc(F)c1F [Compound 303, 4-((2R,3S,4S,5R)-3-(3,4-difluoro-2-methoxyphenyl)-4,5-dimethyl-5-(trifluoromethyl)tetrahydrofuran-2-carboxamido)piperidine-1-carboxamide] here?
Its IC50 is at least 1000 nM.

With COc1c(C2C(C(=O)Nc3ccnc(C(O)C(C)O)c3)OC(C)(C(F)(F)F)C2C)ccc(F)c1F (stereo not drawn) [Compound 208, 3-(3,4-difluoro-2-methoxy-phenyl)-N-[2-(1,2-dihydroxypropyl)-4-pyridyl]-4,5-dimethyl-5-(trifluoromethyl)tetrahydrofuran-2-carboxamide] as the compound, how does the IC50 read?
Its IC50 is under 10 nM.

Which IC50 does the source give for C[C@H](CO)COc1c([C@H]2[C@H](C(=O)Nc3ccc(C(N)=O)nc3)O[C@@](C)(C(F)(F)F)[C@H]2C)ccc(F)c1F [Compound 614, 5-((2R,3S,4S,5R)-3-(3,4-difluoro-2-((R)-3-hydroxy-2-methylpropoxy)phenyl)-4,5-dimethyl-5-(trifluoromethyl)tetrahydrofuran-2-carboxamido)picolinamide] here?
Its IC50 is 10 to 100 nM.

How did the IC50 turn out when COCC(NC(C)C)c1ccc(NC(=O)[C@@H]2O[C@@](C)(C(F)(F)F)[C@@H](C)[C@H]2c2ccc(F)c(F)c2OC)cn1 (single isomer, unassigned) [Compound 420, rel-(2R*,3S*,4S*,5R*)-3-(3,4-difluoro-2-methoxyphenyl)-N-(6-(1-(isopropylamino)-2-methoxyethyl)pyridin-3-yl)-4,5-dimethyl-5-(trifluoromethyl)-tetrahydrofuran-2-carboxamide] was run?
The IC50 was at least 1000 nM.

COc1c([C@H]2[C@H](C(=O)Nc3cc(C(O)CN(C)C)ncc3F)O[C@@](C)(C(F)(F)F)[C@H]2C)ccc(F)c1F (single isomer, unassigned) [Compound 377] was tested. Which IC50 did it give?
The IC50 was under 10 nM.

Which IC50 does the source give for C[C@H]1[C@@H](c2ccc(F)c(F)c2OC(F)F)[C@H](C(=O)Nc2ccnc(S(C)(=O)=O)c2)O[C@@]1(C)C(F)(F)F (single isomer, unassigned) [Compound 85] here?
Its IC50 is under 10 nM.

With COCC(c1ccc(NC(=O)[C@@H]2O[C@@](C)(C(F)(F)F)[C@@H](C)[C@H]2c2ccc(F)c(F)c2OC)cn1)N1CCC1 (single isomer, unassigned) [Compound 407, rel-(2R*,3S*,4S*,5R*)-N-(6-(1-(azetidin-1-yl)-2-methoxyethyl)-pyridin-3-yl)-3-(3,4-difluoro-2-methoxyphenyl)-4,5-dimethyl-5-(trifluoromethyl)-tetrahydrofuran-2-carboxamide] as the compound, how does the IC50 read?
Its IC50 is at least 1000 nM.

COc1c([C@H]2[C@H](C(=O)Nc3ncc(O)cn3)O[C@@](C)(C(F)(F)F)[C@H]2C)ccc(F)c1F [Compound 444, (2R,3S,4S,5R)-3-(3,4-difluoro-2-methoxy-phenyl)-N-(5-hydroxypyrimidin-2-yl)-4,5-dimethyl-5-(trifluoromethyl)tetrahydrofuran-2-carboxamide] was tested. Which IC50 did it give?
Its IC50 is 100 to 1000 nM.

For COc1c([C@H]2[C@H](C(=O)Nc3ccnc(N4C[C@H]5CC[C@H](N5)C4=O)c3)O[C@@](C)(C(F)(F)F)[C@H]2C)ccc(F)c1F (single isomer, unassigned) [Compound 493, rel-(2R*,3S*,4S*,5R*)-3-(3,4-difluoro-2-methoxyphenyl)-4,5-dimethyl-N-(2-((1S,5R)-2-oxo-3,8-diazabicyclo[3.2.1]octan-3-yl)pyridin-4-yl)-5-(trifluoromethyl)tetrahydrofuran-2-carboxamide], which IC50 is on record?
The IC50 was 10 to 100 nM.

C[C@@H]1[C@H](c2ccc(F)c(F)c2OC(F)F)[C@@H](C(=O)Nc2ccc(CC(C)(C)O)nc2)O[C@]1(C)C(F)(F)F (single isomer, unassigned) [Compound 461] was tested. Which IC50 did it give?
Its IC50 is at least 1000 nM.

COCC(NC(C)C)c1ccc(NC(=O)[C@@H]2O[C@@](C)(C(F)(F)F)[C@@H](C)[C@H]2c2ccc(F)c(F)c2OC)cn1 (single isomer, unassigned) [Compound 421, rel-(2R*,3S*,4S*,5R*)-3-(3,4-difluoro-2-methoxyphenyl)-N-(6-(1-(isopropylamino)-2-methoxyethyl)pyridin-3-yl)-4,5-dimethyl-5-(trifluoromethyl)-tetrahydrofuran-2-carboxamide] was tested. Which IC50 did it give?
The IC50 was 100 to 1000 nM.

How did the IC50 turn out when CC1C(c2ccc(F)c(F)c2OC2CC(O)C2)C(C(=O)Nc2cc(CO)ncc2F)OC1(C)C(F)(F)F [Compound 657, (2R,3S,4S,5R)-3-(3,4-difluoro-2-((1S,3R)-3-hydroxycyclobutoxy)phenyl)-N-(5-fluoro-2-(hydroxymethyl)pyridin-4-yl)-4,5-dimethyl-5-(trifluoromethyl)tetrahydrofuran-2-carboxamide] was run?
Its IC50 is at least 1000 nM.

For COC[C@@H](C)Oc1c([C@H]2[C@H](C(=O)Nc3ccnc(CO)c3)O[C@@](C)(C(F)(F)F)[C@H]2C)ccc(F)c1F [Compound 646, (2R,3S,4S,5R)-3-(3,4-difluoro-2-(((R)-1-methoxypropan-2-yl)oxy)phenyl)-N-(2-(hydroxymethyl)pyridin-4-yl)-4,5-dimethyl-5-(trifluoromethyl)tetrahydrofuran-2-carboxamide], which IC50 is on record?
The IC50 was under 10 nM.

COc1c([C@H]2[C@H](C(=O)Nc3ccnc(N4CCN(C)[C@H](C)C4=O)c3)O[C@@](C)(C(F)(F)F)[C@H]2C)ccc(F)c1F [Compound 475, (2R,3S,4S,5R)-3-(3,4-difluoro-2-methoxyphenyl)-N-(2-((R)-3,4-dimethyl-2-oxopiperazin-1-yl)pyridin-4-yl)-4,5-dimethyl-5-(trifluoromethyl)tetrahydrofuran-2-carboxamide] was tested. Which IC50 did it give?
Its IC50 is 10 to 100 nM.

C[C@H]1[C@@H](c2ccc(F)c(F)c2OC(F)F)[C@H](C(=O)Nc2ccc(=O)n(C)c2)O[C@@]1(C)C(F)(F)F (single isomer, unassigned) [Compound 68] was tested. Which IC50 did it give?
Its IC50 is 10 to 100 nM.

How did the IC50 turn out when COc1c([C@H]2[C@H](C(=O)Nc3ccnc(N4CC(N)CC4=O)c3)O[C@@](C)(C(F)(F)F)[C@H]2C)ccc(F)c1F (single isomer, unassigned) [Compound 496, rel-(2R*,3S*,4S*,5R*)-N-(2-(4-amino-2-oxopyrrolidin-1-yl)pyridin-4-yl)-3-(3,4-difluoro-2-methoxyphenyl)-4,5-dimethyl-5-(trifluoromethyl)tetrahydrofuran-2-carboxamide] was run?
Its IC50 is 10 to 100 nM.

How did the IC50 turn out when COc1c([C@H]2[C@H](C(=O)Nc3ccnc(CCO)c3)O[C@@](C)(C(F)(F)F)[C@H]2C)ccc(F)c1F [Compound 385, (2R,3S,4S,5R)-3-(3,4-difluoro-2-methoxyphenyl)-N-(2-(2-hydroxyethyl)pyridin-4-yl)-4,5-dimethyl-5-(trifluoromethyl)tetrahydrofuran-2-carboxamide] was run?
Its IC50 is under 10 nM.
